Data: publication PMC8456958, “Selective Bacterial Targeting and Infection‐Triggered Release of Antibiotic Colistin Conjugates” (Angewandte Chemie (International Ed. in English), 2021)
Converted amounts (≈) assume the structure as drawn. Positions of bridges follow the written chain, without caps; N, C: chain ends. Non-standard residues stand in square brackets, D forms with d. Residues, ends and D or L forms follow the SMILES beside them. *: point of attachment. Heptanoyl(6-Me) = CC(C)CCCCC(=O)*; Dab = NCC[C@H](N)C(=O)O

Tested on: E. coli DSM 1116
Format: cell-based, Escherichia coli
Conditions: Table 1; without elastase; broth dilution, T-medium, 5-6 x 10^5 CFU, 37 °C, OD600 readout
Procedure: min at rt, and blood smears were prepared on microscopy slides that were air-dried in the dark. Phase contrast and fluorescence (485/520 nm) microscopy pictures were captured with a Zeiss Axiovert with a 40× APO 1.4 lens. For quantification of fluorescence, pictures were analyzed by using ImageJ (v1.52).
Outlines were drawn around each cell and circularity, area and mean fluorescence were determined.
In addition, several background readings were taken at empty areas. Total corrected cellular fluorescence (TCCF) = integrated density – (area of selected cell × mean fluorescence of background readings), was calculated for 200 bacteria for each assay.
Determination of antibacterial activities by broth dilution assay […]
External neutrophil elastase was added at 10 mU/ml or 100 mU/ml to each well at the start of incubation, where indicated. […] OD600 was then determined in a microplate reader. […]
Quantification of 1, 6 and 7
To 50 µl samples 50 µl acetic acid were added and the samples were filtered through 10 kDa ultrafiltration columns (Amicon Ultra 0.5 ml, Millipore) by centrifugation for 60 min at 14.000 x g and 4 °C. […] Colistin was quantified on a Q-Trap 6500 HPLC-MS with samples of 5 µl each as described above. […]

SMILES: CC(C)CCCCC(=O)N[C@@H](CCN)C(=O)N[C@H](C(=O)N[C@@H](CCN)C(=O)N[C@H]1CCNC(=O)[C@H]([C@@H](C)O)NC(=O)[C@H](CCN)NC(=O)[C@H](CCN)NC(=O)[C@H](CC(C)C)NC(=O)[C@@H](CC(C)C)NC(=O)[C@H](CCN)NC1=O)[C@@H](C)O [Compound 1, colistin B, reference compound] ({Heptanoyl(6-Me)}-[Dab]T[Dab][Dab][Dab][dL]L[Dab][Dab]T; lactam 4-C)
- MIC, E. coli DSM 1116: 0.063 µM (≈ 0.0728 µg/mL)
